Results from patent US9340788B2 (priority 2007, dated 2016).

Assays:
[1] = tested on: PI3-K/Akt signaling; assay type: cell-based, human; conditions: HEL; 10 min stimulation; IMC-3G3 2 μg/ml or Gleevec 100 nM; p-Akt Ser 473
Method: HEL cells pretreated with blocking reagents (as indicated; 30 min, 37 C) were stimulated for 10 min with HCMV, PDGF-AA (5 ng/ml), or mock-treated. Cell lysates were collected in RIPA buffer (supplemented with protease and phosphatase inhibitors) and subjected to Western blot analysis.
For stimulation experiments, cells were serum-starved for 24 h, followed by stimulation with HCMV (MOI of 0.5), PDGF-AA (5-10 ng/ml, from R&D Systems), or mock, for 10 minutes. In some cases, cells were pre-treated with IMC-3G3 (ImClone Inc.) at 10 g/ml (2 or 12 h) or Gleevec® (100 nM, 1 h) prior to HCMV exposure. Cell lysates were analyzed by SDS-PAGE. Antibodies used were as follows: polyclonal anti-PDGFRα ( 1/500), phosphor-Tyrosine clone 4G10 ( 1/1000), and monoclonal anti-p85 PI3-K ( 1/1000), (Upstate Biotechnology), anti HCMV IE1 MAB810 (Chemicon; 1/1000), anti HCMV pp65 (Novocastra, 1/1000), anti-phosphor-PDGFRα ( 1/500, pTyr 754), anti-phosphor-Akt (Ser 473, 1/1000) and total Akt ( 1/1000; all from Cell Signaling). Anti-actin polyclonal control antibody was used ( 1/500, Sigma). Immunoprecipitations were performed using protein G (Pierce) according to manufacturer's instructions.

[2] = target: T1, human PDGFRα (Homo sapiens, UniProt P16234); assay: Human Phospho-PDGFRα ELISA; assay type: cell-based; conditions: HEL; Towne, AD169 and TR strains; IMC-3G3 10 μg/ml, 2 h pretreatment; HCMV MOI=1, 10 min
T1 construct: HEL cells that endogenously express PDGFRα; endogenous in cells; host or cells: HEL human embryonic lung fibroblasts (ATCC)
Method: (A) HEL cells stimulated with HCMV or PDGF-AA were subjected to immunoprecipitation and western blot analyses with indicated antibodies. (B) Phospho-PDGFRα ELISA of cells+/−pretreatment with IMC-3G3 (10 μg/ml, 2 h) followed by HCMV (MOI=1) or PDGF (10 ng/ml) for 10 min. Mean values (n=6)±S.D are shown. (C) Western blot of HEL mock, HCMV, or PDGF-AA stimulated (10 min), +/−IMC-3G3 (2 μg/ml) or Gleevec® (Imatinib) (100 nM). The same membrane was used for p-Akt^Ser 473 and Akt.
(A) Immunofluorescence detection of gB (upper panels) and PDGFRα (lower panels) in PDGFRα KO cells and PDGFRα overexpressing (OE) cells, following incubation with the gB peptide or mock treatment. Reduced PDGFRα surface staining in gB-treated cells is likely due to receptor internalization. (B) and (C) Immunoprecipitation of PDGFRα and gB from HEL lysates and full-length soluble gB alone or pre-incubated together. Immunoprecipitates were subjected to western blot with the indicated antibodies. (D) ELISA of hPDGFRα phosphorylation after HCMV stimulation (MOI=1), PDGF (10 ng/ml) or recombinant soluble gB (30 μg/ml) in presence or absence of gB neutralizing antibodies 7-17 and Mab 758 (5 μg/ml); bars, ±S.D. (E) Portions of same lysates used in (D) were analyzed by western blot with indicated antibodies.
Human Phospho-PDGFRα ELISA. […] Reaction products were read using a microplate reader set at 450 nm. […]

[3] = tested on: HCMV; assay: Viral attachment and internalization assay (pp65 immunofluorescence); assay type: cell-based, Human cytomegalovirus
Method: (A) HEL cells were pretreated with PBS (20 min 4° C.), IMC-3G3 (2 h, 37° C., 10 μg/ml), or PDGF-AA (20 min, 4° C., 10 ng/ml) prior to infection with HCMV (MOI of 1, 4° C., 1 h). Cells were returned to 37° C. for 30 minutes, and processed for pp65^HCMV and PDGFRα double immunofluorescence. […] All conditions were assayed in triplicate cultures. One hundred cells in 4 low magnification fields were counted. Bars represent SD.
Viral Attachment and Internalization Assays. Mouse fibroblasts and HEL cells (72 hours following siRNA transfections) were incubated with HCMV (MOI of 0.5) or mock treated for 1 hour at 4° C., after which cells were returned to 37° C. for 15, 30, or 60 min. Cells were fixed using methanol (20 min) and processed for pp65 immunofluorescence. Four low power fields were counted for each condition and pp65 positive were recorded for each 100 cells. Internalization assays were repeated twice.

T1 sequence (P16234 24-1089): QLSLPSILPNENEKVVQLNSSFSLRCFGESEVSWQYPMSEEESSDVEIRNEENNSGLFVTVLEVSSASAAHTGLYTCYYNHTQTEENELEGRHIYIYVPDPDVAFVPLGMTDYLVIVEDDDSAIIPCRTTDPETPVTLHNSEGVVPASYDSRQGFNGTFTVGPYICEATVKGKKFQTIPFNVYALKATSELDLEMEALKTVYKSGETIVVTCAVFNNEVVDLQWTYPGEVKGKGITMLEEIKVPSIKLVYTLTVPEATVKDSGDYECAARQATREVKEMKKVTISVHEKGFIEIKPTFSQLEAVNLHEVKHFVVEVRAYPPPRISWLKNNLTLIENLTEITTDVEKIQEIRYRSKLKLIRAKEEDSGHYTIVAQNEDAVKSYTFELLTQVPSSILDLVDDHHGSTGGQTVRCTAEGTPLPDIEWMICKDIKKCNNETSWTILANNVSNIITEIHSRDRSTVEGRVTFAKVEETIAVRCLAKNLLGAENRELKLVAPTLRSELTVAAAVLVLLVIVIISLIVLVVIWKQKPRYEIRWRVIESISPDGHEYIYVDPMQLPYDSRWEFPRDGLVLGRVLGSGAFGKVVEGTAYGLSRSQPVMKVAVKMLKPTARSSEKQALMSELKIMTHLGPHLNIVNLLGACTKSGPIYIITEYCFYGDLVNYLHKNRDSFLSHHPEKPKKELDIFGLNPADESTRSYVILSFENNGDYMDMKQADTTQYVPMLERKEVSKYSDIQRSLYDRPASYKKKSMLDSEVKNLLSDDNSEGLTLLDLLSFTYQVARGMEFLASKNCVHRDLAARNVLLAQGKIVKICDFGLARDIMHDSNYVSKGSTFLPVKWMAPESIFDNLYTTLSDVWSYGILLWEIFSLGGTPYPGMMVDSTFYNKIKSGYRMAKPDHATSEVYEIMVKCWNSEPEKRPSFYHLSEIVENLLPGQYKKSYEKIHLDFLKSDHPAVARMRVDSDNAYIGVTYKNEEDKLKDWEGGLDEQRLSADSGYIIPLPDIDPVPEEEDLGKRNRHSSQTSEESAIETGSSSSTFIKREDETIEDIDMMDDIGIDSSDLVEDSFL

IMC-3G3: humanized PDGFRα blocking antibody (ImClone Inc.)
Akt phosphorylation induced by either HCMV or PDGF-AA [1]: abolished
PDGFRα phosphorylation induced by HCMV strains [2]: significantly inhibited
inhibition of HCMV entry (pp65 positive cells) ([3]; HEL cells, IMC-3G3 2 h, 37° C., 10 μg/ml, PDGF-AA 20 min, 4° C., 10 ng/ml, HCMV MOI of 1, 30 min at 37° C.): ~45%
HCMV viral internalization ([3]; human epithelial, endothelial, and fibroblast cells): completely inhibited
